Measurements as given in patent US20250326748A1, “COMPOUNDS AND METHODS FOR MODULATING SPLICING” (REMIX THERAPEUTICS INC., priority 2022, published 2025).
Counter-ions that a name gives are not always drawn. Like-named read-outs stand apart in the source and are kept apart here.

Assays:
Assay type in all cases: cell-based, human
[1] = tested on: MYB mRNA; experiment: Splicing RT-qPCR assay, MYB canonical (CJ) and alternative (AJ) junction mRNA; conditions: Homo sapiens; for IC50: canonical junction mRNA; for AC50: alternative junction mRNA, read-out: MYB AJ (AC50, increase in AJ mRNA)
Summary of the method: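 Splicing switches are scored by TaqMan qPCR on cell lysate, comparing abundance of the normal exon junction with the new junction formed when the alternative exon is included. A673 results are referenced to PPIA and K562 results to GAPDH or GUSB. Compound exposure lasts 24 h.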

[2] = tested on: SMN2 mRNA; experiment: Splicing RT-qPCR panel, SMN2 canonical junction (CJ) mRNA; conditions: Homo sapiens, read-out: SMN2 CJ (decrease in CJ mRNA levels, IC50)
Summary of the method: (§1)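 A673 cells (DMEM, 10% FBS) or K562 cells (IMDM, 10% FBS) treated 24 h at 37 °C with an 11-point 3-fold dilution, top 10 uM, DMSO ≤0.25%. Canonical-junction mRNA quantified in lysates by RT-qPCR, normalised to GAPDH, GUSB or PPIA and to DMSO (2^−ΔΔCt), then converted to % response.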

[3] = tested on: Target C mRNA; experiment: Splicing RT-qPCR panel, Target C canonical junction (CJ) mRNA; conditions: Homo sapiens, read-out: Target C CJ (decrease in CJ mRNA levels, IC50)
Summary of the method: as §1

[4] = qPCR panel, read-out: MYB CJ (decrease in CJ mRNA levels, IC50)
[5] = RT-qPCR, A673 or K562 cells, 24 hours treatment
[6] = RT-qPCR, A673 or K562 cells, 24 hours treatment, read-out: MYB CJ (IC50, decrease in CJ mRNA)

CN[C@@H]1CN(c2cnc3nc(-c4cc5cn(C)nc5c(C)c4O)ccc3c2)C[C@H]1F (single isomer, unassigned) [Compound 130]
IC50 [1, 4]: < 100 nM
AC50 [1, 5]: < 100 nM
IC50 [1, 6]: < 100 nM
IC50 [2]: < 100 nM
IC50 [3]: 100 to 1000 nM

CN[C@H]1CN(c2cnc3nc(-c4cc5cn(C)nc5c(C)c4O)ccc3c2)C[C@@H]1F (single isomer, unassigned) [Compound 131]
IC50 [1, 4]: 100 to 1000 nM
AC50 [1, 5]: 100 to 1000 nM
IC50 [1, 6]: 100 to 1000 nM
IC50 [2]: < 100 nM
IC50 [3]: 1000 to 10000 nM

Cc1c(O)c(-c2ccc3cc(N4CCC(NCC5CC5)C4)cnc3n2)cc2cn(C)nc12 (stereo in doubt) [Compound 119, 5-{6-[(3R)-3-[(cyclopropylmethyl)amino]pyrrolidin-1-yl]-1,8-naphthyridin-2-yl}-2,7-dimethylindazol-6-ol]
IC50 [1, 4]: < 100 nM
AC50 [1, 5]: < 100 nM
IC50 [1, 6]: < 100 nM
IC50 [2]: < 100 nM
IC50 [3]: 100 to 1000 nM

CNC1CCN(c2cnc3nc(-c4cc5cn(C)nc5c(C)c4O)ncc3c2)C1 (stereo not drawn) [Compound 104, 2,7-dimethyl-5-{6-[3-(methylamino)pyrrolidin-1-yl]pyrido[2,3-d]pyrimidin-2-yl}indazol-6-ol]
IC50 [1, 4]: < 100 nM
AC50 [1, 5]: < 100 nM
IC50 [1, 6]: < 100 nM
IC50 [2]: < 100 nM

Cc1c(O)c(-c2ccc3cc(N4CCC(NCC5CC5)C4)cnc3n2)cc2cn(C)nc12 (stereo not drawn) [Compound 105, 5-(6-{3-[(cyclopropylmethyl)amino]pyrrolidin-1-yl}-1,8-naphthyridin-2-yl)-2,7-dimethylindazol-6-ol]
IC50 [1, 4]: < 100 nM
AC50 [1, 5]: < 100 nM
IC50 [1, 6]: < 100 nM
IC50 [2]: < 100 nM
IC50 [3]: 1000 to 10000 nM

CCNC1CCN(c2cnc3nc(-c4cc5cn(C)nc5c(F)c4O)ccc3c2)C1 (stereo not drawn) [Compound 106, 5-{6-[3-(ethylamino)pyrrolidin-1-yl]-1,8-naphthyridin-2-yl}-7-fluoro-2-methylindazol-6-ol]
IC50 [1, 4]: < 100 nM
AC50 [1, 5]: < 100 nM
IC50 [1, 6]: < 100 nM
IC50 [2]: < 100 nM
IC50 [3]: 100 to 1000 nM

CN[C@@H]1CCN(c2cnc3nc(-c4cc5cn(C)nc5c(C)c4O)ncc3c2)C1 [Compound 107, 2,7-dimethyl-5-{6-[(3R)-3-(methylamino)pyrrolidin-1-yl]pyrido[2,3-d]pyrimidin-2-yl}indazol-6-ol hydrochloride]
IC50 [1, 4]: < 100 nM
AC50 [1, 5]: < 100 nM
IC50 [1, 6]: < 100 nM
IC50 [2]: < 100 nM
IC50 [3]: 100 to 1000 nM

CN[C@@H]1CCN(c2cnc3nc(-c4cc5cn(C)nc5c(C)c4O)ccc3c2)C1 [Compound 112]
IC50 [1, 4]: < 100 nM
AC50 [1, 5]: < 100 nM
IC50 [1, 6]: < 100 nM
IC50 [2]: < 100 nM
IC50 [3]: < 100 nM

Cc1cn2nc(-c3cnc4nc(C5CCNCC5)ccc4c3)cc(C)c2n1 [Compound 115, 6-(2,8-dimethylimidazo[1,2-b]pyridazin-6-yl)-2-(piperidin-4-yl)-1,8-naphthyridine]
IC50 [1, 4]: 1000 to 10000 nM
AC50 [1, 5]: 1000 to 10000 nM
IC50 [1, 6]: 1000 to 10000 nM
IC50 [2]: 100 to 1000 nM
IC50 [3]: > 10000 nM

CN[C@H]1CCN(c2cnc3nc(-c4cc(C)c5nc(C)cn5n4)ccc3c2)C1 [Compound 116]
IC50 [1, 4]: < 100 nM
AC50 [1, 5]: < 100 nM
IC50 [1, 6]: < 100 nM
IC50 [2]: < 100 nM
IC50 [3]: 100 to 1000 nM

CN[C@@H]1CCN(c2cnc3nc(-c4cc(C)c5nc(C)cn5n4)ccc3c2)C1 [Compound 117]
IC50 [1, 4]: < 100 nM
AC50 [1, 5]: 100 to 1000 nM
IC50 [1, 6]: < 100 nM
IC50 [2]: < 100 nM
IC50 [3]: 1000 to 10000 nM

Cc1c(O)c(-c2ccc3cc(N4CC[C@@H](NCC5CC5)C4)cnc3n2)cc2cn(C)nc12 [Compound 118]
IC50 [1, 4]: < 100 nM
AC50 [1, 5]: < 100 nM
IC50 [1, 6]: < 100 nM
IC50 [2]: < 100 nM
IC50 [3]: 100 to 1000 nM

CN[C@H]1CCN(c2cnc3nc(-c4cc5cn(C)nc5c(C)c4O)ncc3c2)C1 [Compound 120]
IC50 [1, 4]: < 100 nM
AC50 [1, 5]: < 100 nM
IC50 [1, 6]: < 100 nM
IC50 [2]: < 100 nM
IC50 [3]: > 10000 nM

CCNC1CCN(c2cnc3nc(-c4cc5cn(C)nc5c(C)c4O)ccc3c2)C1 (stereo not drawn) [Compound 122, 5-{6-[3-(ethylamino)pyrrolidin-1-yl]-1,8-naphthyridin-2-yl}-2,7-dimethylindazol-6-ol]
IC50 [1, 4]: < 100 nM
AC50 [1, 5]: < 100 nM
IC50 [1, 6]: < 100 nM
IC50 [2]: < 100 nM
IC50 [3]: 100 to 1000 nM

CCN[C@H]1CCN(c2cnc3nc(-c4cc5cn(C)nc5c(C)c4O)ccc3c2)C1 [Compound 123]
IC50 [1, 4]: < 100 nM
AC50 [1, 5]: < 100 nM
IC50 [1, 6]: < 100 nM
IC50 [2]: < 100 nM
IC50 [3]: 100 to 1000 nM

CCN[C@@H]1CCN(c2cnc3nc(-c4cc5cn(C)nc5c(C)c4O)ccc3c2)C1 [Compound 124]
IC50 [1, 4]: < 100 nM
AC50 [1, 5]: < 100 nM
IC50 [1, 6]: < 100 nM
IC50 [2]: < 100 nM
IC50 [3]: 100 to 1000 nM

CN[C@H]1CN(c2cnc3nc(-c4cc5cn(C)nc5c(C)c4O)ccc3c2)C[C@H]1C [Compound 125, 2,7-dimethyl-5-{6-[(3R,4R)-3-methyl-4-(methylamino)379pyrrolidine-1-yl]-1,8-naphthyridin-2-yl}indazol-6-ol]
IC50 [1, 4]: < 100 nM
AC50 [1, 5]: < 100 nM
IC50 [1, 6]: < 100 nM
IC50 [2]: < 100 nM
IC50 [3]: 100 to 1000 nM

CN[C@@H]1CN(c2cnc3nc(-c4cc5cn(C)nc5c(C)c4O)ccc3c2)C[C@H]1C [Compound 126, 2,7-dimethyl-5-{6-[(3R,4S)-3-methyl-4-(methylamino)382pyrrolidine-1-yl]-1,8-naphthyridin-2-yl}indazol-6-ol]
IC50 [1, 4]: 100 to 1000 nM
AC50 [1, 5]: 100 to 1000 nM
IC50 [1, 6]: 100 to 1000 nM
IC50 [2]: < 100 nM
IC50 [3]: 1000 to 10000 nM

CN[C@H]1CN(c2cnc3nc(-c4cc5cn(C)nc5c(C)c4O)ccc3c2)C[C@@H]1C [Compound 127, 2,7-dimethyl-5-{6-[(3S,4R)-3-methyl-4-(methylamino)384pyrrolidine-1-yl]-1,8-naphthyridin-2-yl}indazol-6-ol]
IC50 [1, 4]: < 100 nM
AC50 [1, 5]: 100 to 1000 nM
IC50 [1, 6]: < 100 nM
IC50 [2]: < 100 nM
IC50 [3]: 100 to 1000 nM

CN[C@@H]1CN(c2cnc3nc(-c4cc5cn(C)nc5c(C)c4O)ccc3c2)C[C@@H]1C [Compound 128]
IC50 [1, 4]: < 100 nM
AC50 [1, 5]: 100 to 1000 nM
IC50 [1, 6]: < 100 nM
IC50 [2]: < 100 nM
IC50 [3]: 100 to 1000 nM

CN[C@H]1CN(c2cnc3nc(-c4cc5cn(C)nc5c(C)c4O)ccc3c2)C[C@H]1F [Compound 129, 5-{6-[(3R,4S)-3-fluoro-4-(methylamino)pyrrolidin-1-yl]-1,8-naphthyridin-2-yl}-2,7-dimethylindazol-6-ol]
IC50 [1, 4]: 100 to 1000 nM
AC50 [1, 5]: 100 to 1000 nM
IC50 [1, 6]: 100 to 1000 nM
IC50 [2]: < 100 nM
IC50 [3]: 100 to 1000 nM

Cc1cn2cc(-c3cc(Cl)c4cc(N5C[C@H](C)N[C@@H](C)C5)cnc4n3)cc(F)c2n1 [Compound 298]
IC50 [1, 4]: < 100 nM
AC50 [1, 5]: < 100 nM
IC50 [1, 6]: < 100 nM
IC50 [3]: 1000 to 10000 nM

Cc1cn2nc(-c3cc(Cl)c4cc(N5C[C@H](C)N[C@@H](C)C5)cnc4n3)cc(C)c2n1 [Compound 336]
IC50 [1, 4]: < 100 nM
AC50 [1, 5]: < 100 nM
IC50 [1, 6]: < 100 nM
IC50 [3]: 1000 to 10000 nM

Cc1c(O)c(-c2cc(Cl)c3cc(N4CCNC5(CC5)C4)cnc3n2)cc2cn(C)nc12 [Compound 381]
IC50 [1, 4]: < 100 nM
AC50 [1, 5]: < 100 nM
IC50 [1, 6]: < 100 nM
IC50 [3]: 1000 to 10000 nM

Cc1cn2nc(-c3ccc4c(Cl)c(N5C[C@H](C)N[C@@H](C)C5)cnc4n3)cc(C)c2n1 [Compound 393, 5-chloro-2-{2,8-dimethylimidazo[1,2-b]pyridazin-6-yl}-6-[(3S,5S)-3,5-dimethylpiperazin-1-yl]-1,8-naphthyridine]
IC50 [1, 4]: < 100 nM
AC50 [1, 5]: < 100 nM
IC50 [1, 6]: < 100 nM
IC50 [3]: 1000 to 10000 nM
